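Following 48 hours of exposure in 96-well plates, responses at five concentrations were used to interpolate endpoints linearly. GI50 marks 50% less growth.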 The source made the active and inactive calls. Cut-off read from the data, not from the text of the source: active = GI50 up to about 1.1 µM and inactive = higher.

The text below walks through data of ChEMBL document CHEMBL1201862, “PubChem BioAssay data set” (2004).

Some test systems named below: A498; COLO 205; DLD-1; HCT-15; HL-60; HOP-92; HT-29; NCI-H226; NCI-H460; OVCAR-3; OVCAR-4; SF-268; SK-MEL-5; SK-OV-3; SR; SW-620; TK-10; U-251.
What all share (assay): NCI tumour cell line growth inhibition, 48 h

With `O=C(/C=C/c1ccccc1F)c1ccc(Cl)c(Cl)c1`, the GI50 in the test with A498 was > 39.1 µM (inactive); with COLO 205, 75.3 µM (inactive); with DLD-1 it was 23.9 µM (inactive); in the test with HCT-15, 37.1 µM; with HL-60 it was 18.9 µM (inactive); in the test with HOP-92, > 100 µM (inactive). Moreover, the GI50 in the test with HT-29 is 27.3 µM (inactive); with NCI-H226, > 100 µM (inactive); in the test with NCI-H460, > 71.1 µM (inactive); with OVCAR-3 it was > 44.8 µM (inactive); with OVCAR-4, 44.4 µM (inactive); with SF-268 it was 38.3 µM (inactive). The GI50 was 33.5 µM (inactive) with SK-MEL-5; > 100 µM (inactive) in the test on SK-OV-3; 33.3 µM (inactive) with SR; 29.3 µM (inactive) with SW-620; > 100 µM (inactive) with TK-10; > 10 µM (inactive) with U-251.
